Data published in patent US8729034B2, “Pharmaceutical composition having virucidal and spermicidal activity” (priority 2007, dated 2014).

Tests used:
Candida albicans = experiment: Effect on in vitro culture of Candida albicans for 24 hours; assay type: cell-based; conditions: Ac-B 125 microgram per ml; PD agar
Procedure: Candida albicans spores were grown in vitro on Potato dextrose [PD] agar plates without (control) and with Ac-B at a concentration of 125 microgram per ml.

[1] = tested on: Salmonella typhimurium TA100; experiment: Bacterial reverse mutation assay (MUTA-CHROMOPLATE kit)
Text: Ac-B was examined for its ability to produce mutations/revert mutations in a bacterial reverse mutation assay using amino acid-requiring strain of Salmonella typhimurium (S. typhimurium) TA100 and the result was compared with a known mutagen (Na-azide). A commercial kit (The MUTA-CHROMOPLATE) from M/s Environmental Biodetection Products Inc. Ontario, Canada, was used. Suspensions of bacterial cells were exposed to the test substance in the presence and in the absence of an exogenous metabolic activation system. After 5 days of incubation, revertant colonies were detected by the change of colour from blue to yellow on solvent control plates. All yellow, partially yellow or turbid wells were scored as positive, while all purple wells were scored as negative. Number of positive wells for each plate was recorded, their number was counted and compared to that of spontaneous revertant colonies. The “Background” (i.e. no test material added) plate was used as reference for the level of spontaneous or background mutation of the assay organism. The statistical difference was determined using a table provided with the kit.
Score of mutagenicity as per the set criteria of Muta-Chromoplate test kit.

human spermatozoa = experiment: Penetrak Test (bovine cervical mucus penetration test); assay type: cell-based; conditions: treated at MEC, washed; 1 hour; BWW control about 27(±3) mm
Procedure: The bovine cervical mucus penetration test was performed using the Penetrak kit (Serono Diagnostics, Allentown, Pa.).
Working suspension of human spermatozoa, prepared as above was treated in vitro with Ac-B at MEC, washed and resuspended in pre-equilibrated BWW medium. For the negative control set, same treatment was given to the sperms in BWW medium. Flat-capillary tubes filled with periovulatory mid-cycle bovine cervical mucus, in duplicate, were thawed at room temperature for 30 minutes and snapped at the red score mark above the mucus meniscus. The cut end was placed in tube containing treated/control washed sperm suspension and placed inside a CO2 incubator for 1 hour. The capillary tubes were then taken out, cleaned to remove superficially attached sperms, placed on a calibrated slide and examined by phase contrast microscopy (at ×400). The vanguard sperm was located and the distance (in mm) covered by it was measured to score the penetrating capacity of a sperm of the test sets.

Female cycling rats = experiment: Intra uterine application of Ac-B and IUI in rat, fertilization outcome; assay type: in vivo, Sprague-Dawley rats
Procedure: Female cycling rats weighing 180-200 g were obtained from the institutional Animal House. The duplex nature of the rat uterus with separate cervical canal helped us to organize both control and experimental sets in the same animal with exposure to identical physiological milieu.
On the day of pro-estrous, both horns of the uterus were exposed by mid-ventral incision of the abdomen under light anesthesia following intra peritoneal injection of Ketamin at a concentration of 100 mg/kg body weight, supported by inhalation of anesthetic-ether, during 17.00-17.30 hours of the day. IUI was performed by injecting 50 microliters of sperm suspensions with varied concentration (25-30, 40-50, and 50-55 million sperms/ml) through a 24 G needle fitted onto a tuberculin syringe in the cervical end of the uterine lumen of each horn. The muscle in the injection site was held tightly for a while to prevent leakage through the puncture. Prior to IUI, each rat received a injection of 1.75 mg Ac-B in 50 microliters BWW medium in the left horn and simple BWW medium in the right horn. The opened abdominal muscle and skin layers were properly sutured by suturing silk thread. The outer most skin layers were further fixed by metal clips. The wound was properly cleaned with antiseptic lotions. Each operated animal was housed individually in fresh cage for collection and counting of unfertilized oocytes, two celled embryos, and fragmented bodies. […] The abdomen was opened and each of the fallopian tubes was collected carefully. The content of each tube was flushed out by introducing BWW medium into each tube with the help of a 30 G hypodermic needle in a watch glass. The flushed out lavage was examined under an inverted phase contrast microscope (Leitz, Labovert, ×100) to score the number of recovered fertilized/unfertilized eggs from individual fallopian tube.

mouse spermatozoa = experiment: Sander & Cramer spermicidal assay (in vitro); assay type: cell-based
Procedure: (§1) Sexually mature male mice and rats were autopsied following euthanasia by an overdose of Ketamin (≧200 mg/kg body weight; injected i.p.) and their cauda epididymis were excised. Working suspension of animal spermatozoa was prepared with the exudates obtained after careful pricking of the cauda epididymis with an injection needle (18 G) and the exudates were collected in a conical centrifuge tube.
(§2) The exudates/liquefied human semen samples were suspended in BWW medium (pre equilibrated at 37 degree C.). The spermatozoa with forward motility were separated from immotile or sluggishly motile cells by the swim-up technique and were allowed to disperse evenly within a CO2 incubator at 37 degree C. At least five aliquots from each sample was used to prepare the working spermatozoa suspension. The swim up procedure was as follows:
(§3) Pre equilibrated BWW medium (1.25 ml) was gently layered over cauda-exudates or liquefied human semen (1 ml) in a sterile 15 ml conical-based centrifuge tube. The tube was inclined at an angle of 45 degree and incubated for 1 hour at 37 degree C. in a CO2-incubator. It was then gently returned to the upright position and the uppermost 1 ml medium with a turbid appearance was removed. This aliquot of motile cells was pooled from each set, then diluted with same volumes of pre equilibrated BWW medium, centrifuged at 500 g for 5 minutes and finally resuspended in 1 ml pre equilibrated BWW medium to obtain a working suspension. The sperm cells were counted in a Makler chamber (Zygotec Systems, Springfield, M A, USA) and finally a working spermatozoa suspension having concentration of 25 to 30×10^6 cells/ml was prepared.
(§4) For in vitro assay of spermicidal effect, sperms collected from proven male rats and mice, and motile spermatozoa from liquefied human semen were used.
(§5) The assay was done following the Sander & Cramer assay method. Two hundred micro liter (200 microliters) of working spermatozoa suspension was added to 1 ml solution of test material in BWW medium and mixed on a light vortex for 10 seconds. A wet mount was immediately prepared on a clean microscopy glass slide and examined (at ×100) under a phase contrast microscope (Leitz, Biomed). The weakest concentration that immobilized all spermatozoa within 20 seconds of mixing was recorded as MEC. At least five fields were examined for each wet mount preparation. The observation was repeated with five individual spermatozoa suspension for each concentration of test compound solution. For negative control, saponin solutions were replaced by equal volume of BWW medium, while Nonoxynol 9 was used as positive control.

rat spermatozoa = experiment: Sander & Cramer spermicidal assay (in vitro); assay type: cell-based
Procedure: as §1, §2, §3, §4, §5

[2] = 1.75 mg Ac-B intrauterine, sperm count 25-30 million/ml (N = 3)
[3] = 1.75 mg Ac-B intrauterine, sperm count 40-50 million/ml (N = 4)
[4] = 1.75 mg Ac-B intrauterine, sperm count 50-55 million/ml (N = 4)

In the case of Acaciaside-B [Ac-B], the “Number of Candida albicans colonies, presence vs absence of Ac-B” value (Candida albicans) was “no significant difference”, the “Sizes of individual Candida albicans colonies” value (Candida albicans) was “comparatively smaller” and the Overall mutagenicity result ([1]; Ames Test) was “non-mutagenic”. For the same substance, the “No. of '+' wells (Muta-Chromoplate score)” value ([1]; Background = 20, Blank = 0) was 18, the “Penetration of vanguard sperm into bovine cervical mucus column” value (human spermatozoa) was “capillary was devoid of sperm inside the mucus column” and the “Fertilized (number of eggs), treated horn” value (Female cycling rats; 1.75 mg Ac-B in 50 microliters BWW intrauterine before IUI, sperm count 25-30 million/ml (N = 3), flushing 38-40 hours after IUI) was 0 (0%). The “Fertilized (%), treated horn” value (Female cycling rats; [2]) was 0 (0%), the “Unfertilized (%), treated horn” value (Female cycling rats; [2]) was 100% and the “Unfertilized (number of eggs), treated horn” value (shortened to “Unfertilized (number of eggs)”) (Female cycling rats; [2]) was 17. For the same substance, the “Fertilized (number of eggs), treated horn” value (Female cycling rats; [3]) was 0 (%), the “Unfertilized (%), treated horn” value (Female cycling rats; [3]) was 100% and the “Unfertilized (number of eggs)” value (Female cycling rats; [3]) was 19. The “Fertilized (%), treated horn” value (Female cycling rats; [4]) was 18%, the “Fertilized (number of eggs), treated horn” value (Female cycling rats; [4]) was 3 and the “Unfertilized (%), treated horn” value (Female cycling rats; [4]) was 82%. For the same substance, the “Unfertilized (number of eggs)” value (Female cycling rats; [4]) was 13, the “MEC as per Sander and Cramer Test” value (mouse spermatozoa; Mouse spermatozoa (N = 10), all immobilized within 20 seconds) was 60 (±2) microgram per ml and the “MEC, Sander-Cramer test” value (mouse spermatozoa; mice) was 60 µg/mL. The “MEC as per Sander and Cramer Test” value (rat spermatozoa; Rat spermatozoa (N = 10), all immobilized within 20 seconds) was 60 (±2) microgram per ml and the “MEC, Sander-Cramer test” value (rat spermatozoa; rats) was 60 µg/mL.
